In patent US20110244078A1 (priority 2010, published 2011):

Test: Moisture sensitivity: degradation of the isothiocyanate suspended in aqueous phosphate buffer
Assay type: physicochemical
Settings: WMEO (about 25% 4-HBITC) suspended in aqueous phosphate buffer, pH about 3.6, about 20-23° C.
Excerpt: As used herein, the term “moisture sensitive” means that the isothiocyanate compound degrades in the presence of water. This degradation proceeds via a hydrolysis reaction, thereby leading to a reduction in level of the active isothiocyanate antimicrobial agent with time of storage in the presence of water. The method for determining moisture sensitivity is set forth in the Test Method section below. […]
Moisture sensitive isothiocyanate compounds are identified by suspending the isothiocyanate containing material in an aqueous phosphate buffer (pH of about 3.6) at room temperature. […] The extraction procedure is repeated after 24 hours and the level of residual isothiocyanate compound is measured by supercritical fluid chromatography. […]
A white mustard essential oil is generated by adding water to ground white mustard seeds and then extracting the essential oil with supercritical carbon dioxide according to the known processes described in the art. […] The essential oil is suspended in an aqueous phosphate buffer (pH of about 3.6) at room temperature (about 20-23° C.) and the level of 4-hydroxybenzyl isothiocyanate measured at time zero and after about 24 hours of storage as described in the preceding section. […]

Oc1ccc(CN=C=S)cc1 [4-hydroxybenzyl isothiocyanate]
percent reduction in level of 4-hydroxybenzyl isothiocyanate after 24 hours: about 72%
